{"source": "patent US10725043B2", "about": "“Three-dimensional fibroblast aggregate and in vitro 3D skin dermis model comprising same” (S-BIOMEDICS, priority 2015, dated 2020)", "key": {"[1]": {"system": "MMP1", "assay": "MMP1 secretion (ELISA) in two-dimensionally cultured, UVB-irradiated fibroblasts treated with MMP inhibitors", "type": "cell-based, human", "conditions": "for secreted amount of MMP1 relative to the control group: 2D fibroblasts, UVB 20 mJ/cm^2, 2 days, FIG. 17; for decrease of MMP1 in 2D cells in comparison with the 3D cell cluster: 2D UVB fibroblasts versus 3D cell cluster", "protocol": "As a control group for the 3D fibroblast cluster and for the comparison of the inhibitory effect of MMP inhibitors using the two-dimensionally cultured fibroblasts, fibroblasts irradiated with ultraviolet B (UVB) were used. In detail, fibroblasts that were suspended in high-concentration glucose DMEM were seeded onto each well of a tissue culture treated 6-well plate at a concentration of 2.5×10^5 cells/cm^2, and then, cultured in a stationary incubator at a temperature of 37° C. for 1 day. Next, a washing process was performed thereon three times by using PBS, a serum-free MEM medium was added thereto, and the fibroblasts were cultured in a stationary incubator at a temperature of 37° C. for 1 hour. After a washing process was performed thereon three times by using PBS, to induce overexpression of MMP1, UVB (20 mJ/cm^2) was irradiated thereto. Following UV irradiation, the resulting fibroblasts were inoculated with various concentrations of retinoic acid (2, 10, 40 mM), abietic acid (20, 100, 400 mM), and TGF-b1 (1, 5, 20, ng/ml) that were diluted in a fibroblast growth medium (FGM, Lonza Company). The inoculated fibroblasts were then additionally cultured in a stationary incubator at a temperature of 37° C. for 2 days. The culture broth was recovered therefrom, and was subjected to measurement of secretion of MMP1. Through the measurement, the culture broth was quantified by using the ELISA kit (R&D Company), wherein a method of using the kit was proceeded according to the supplier's protocol."}, "[2]": {"system": "MMP1", "assay": "MMP1 secretion (ELISA) in 3D fibroblast cluster treated with MMP inhibitors", "type": "cell-based, human", "conditions": "retinoic acid 10 mM, abietic acid 100 mM, TGF-b1 5 ng/ml, cultured 2 and 4 days, FIG. 16", "protocol": "To prepare an in vitro 3D artificial dermis model, fibroblasts were first cultured. In detail, human dermal fibroblasts were cultured in high glucose Dulbecco's modified Eagle's medium (DMEM, Welgene, Daegu, South Korea) by using a tissue culture flask under conditions of 37° C., 5% CO2, and 95% O2 atmosphere. Human dermal fibroblasts of 5 passages were used for all experiments.\nThe fibroblasts were seeded onto the culture container, thereby preparing a 3D fibroblast cluster. In detail, fibroblasts were seeded onto the 96-well NTCP containing fibroblast growth medium (FGM, Lonza) at a concentration of 1.25×10^5 cells/cm^2 per well, and cultured at a temperature of 37° C. The fibroblasts were cultured in a 2D manner on a surface of the culture container, and separated from the surface. Such separated or delocalized 2D fibroblast cluster was then continuously cultured while floating in the culture container, and within 24 hours, a 3D fibroblast cluster was formed spontaneously. The formed 3D fibroblast cluster was collected on the 1st day (Day 1), 3rd day (Day 3), and 5th day (Day 5) of the culture. […] Hereinafter, the 3D fibroblast cluster was represented by ‘3DCM’.\nIn detail, the 3D fibroblast cluster of the culture at Day 1 prepared according to Example 2(1) was inoculated with retinoic acid (10 mM), abietic acid (100 mM), transforming growth factor-b1 (TGF-b1) (5 ng/ml) that were diluted in a […] (FGM, Lonza Company). The inoculated 3D fibroblast cluster was then cultured in a stationary incubator at a temperature of 37° C. for 2 and 4 days, separately. The culture broth was recovered therefrom, and was subjected to measurement of secretion of MMP1. Through the measurement, the culture broth was quantified by using the ELISA kit (R&D Company), wherein a method of using the kit was proceeded according to the supplier's protocol."}, "[3]": {"conditions": "retinoic acid 2, 10, TGF-b1 1, 5, 20 ng/ml"}}, "data": [{"molecule": "CC(C)C1=CC2=CC[C@@H]3[C@](C)(CCC[C@@]3(C)C(=O)O)[C@H]2CC1", "note": "[abietic acid]", "values": [{"measurement": "secreted amount of MMP1 relative to the control group", "setting": "[1]; abietic acid 20 mM", "result": "approximately reduced to half"}, {"measurement": "secreted amount of MMP1 relative to the control group", "setting": "[1]; abietic acid at least 100 mM", "result": "about 2%"}, {"measurement": "secretion levels of MMP1 relative to the control group", "setting": "[2]", "result": "~81", "unit": "%"}]}, {"molecule": "CC1=C(/C=C/C(C)=C/C=C/C(C)=C/C(=O)O)C(C)(C)CCC1", "note": "[retinoic acid]", "values": [{"measurement": "decrease of MMP1 in 2D cells in comparison with the 3D cell cluster", "setting": "[1]", "result": "about 2.7 times"}, {"measurement": "secreted amount of MMP1 relative to the control group", "setting": "[1]; [3]", "result": "about 30%"}, {"measurement": "secretion levels of MMP1 relative to the control group", "setting": "[2]", "result": "about 80%"}]}, {"molecule": "transforming growth factor-b1 [TGF-b1]", "values": [{"measurement": "decrease of MMP1 in 2D cells in comparison with the 3D cell cluster", "setting": "[1]", "result": "1.7 to 2.4", "unit": "times"}, {"measurement": "secreted amount of MMP1 relative to the control group", "setting": "[1]; [3]", "result": "25-35%"}, {"measurement": "secretion levels of MMP1 relative to the control group", "setting": "[2]", "result": "about 60%"}]}]}
